The target in this experiment is T1, human orexin type 2 receptor (hOX2R) (Homo sapiens, UniProt O43614).
T1 construct: the Orexin receptor cDNA was inserted into pcDNA3.1(+) plasmid vector; expressed in transfected cells
T1 sequence (O43614 1-444): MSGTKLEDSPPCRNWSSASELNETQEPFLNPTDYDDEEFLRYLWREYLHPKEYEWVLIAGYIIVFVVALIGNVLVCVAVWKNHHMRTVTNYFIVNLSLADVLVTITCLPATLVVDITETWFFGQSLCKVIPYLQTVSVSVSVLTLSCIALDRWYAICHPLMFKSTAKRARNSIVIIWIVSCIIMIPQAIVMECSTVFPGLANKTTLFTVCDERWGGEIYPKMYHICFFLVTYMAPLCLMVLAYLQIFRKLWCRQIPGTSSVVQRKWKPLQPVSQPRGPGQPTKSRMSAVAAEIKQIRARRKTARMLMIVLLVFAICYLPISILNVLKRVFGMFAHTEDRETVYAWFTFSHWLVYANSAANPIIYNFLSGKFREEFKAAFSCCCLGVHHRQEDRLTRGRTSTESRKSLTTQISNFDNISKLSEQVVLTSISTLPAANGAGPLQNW
Briefly: Orexin type 2 receptor agonist activity, intracellular Ca2+ (FLIPR TETRA) in CHO cells. Type of experiment: cell-based. Conditions: CHO cells expressing hOX2R; Ca2+ fluorescence area; 100% = 10 nM human orexin A; read-out: hOx2 pEC50 (converted). Here is the method: Stable cell line generation. Obtainment of cells stably expressing either human orexin type 2 or human orexin type 1 receptor: to obtain a stable cell line the Orexin receptor cDNA was inserted into pcDNA3.1(+) plasmid vector and clones identified by G418 drug resistance selection. […] A single clone for OX2R—CHO and OX1R—CHO were grown in bulk and frozen to generate a cell bank for routine screening.
Measurement of orexin type 2 receptor agonist activity. Chinese hamster ovary (CHO) cells expressing human orexin type 2 receptor (hOX2R) or human orexin type 1 receptor (hOX1R) were seeded in each well of 384 well black clear bottom plates (BD Flacon) at 10,000 cells per well and cultured for 24 hr in an Ham's F12 (Gibco) medium containing 10% fetal calf serum (Sigma Aldrich) under the conditions of 37° C., 5% CO2. After removal of the medium, 50 μl of assay buffer 1 (0.1% bovine serum albumin (Sigma Aldrich), 20 mM HEPES (Molecular Dimensions), […] probenecid (Sigma Aldrich), 1× Calcium 5 dye (Molecular Devices) in Hank's balanced salt solution (Invitrogen)) was added, and the cells were incubated for 60 min under the conditions of 37° C., 5% CO2. A test compound was dissolved in dimethyl sulfoxide (Sigma Aldrich) to 10 mM, and then diluted with assay buffer 2 (20 mM HEPES, Hank's balanced salt solution, 0.1% bovine serum albumin). For the reaction, a test compound solution (10 μl) was added using Fluorescent Imaging Plate Reader TETRA (FLIPR TETRA: manufactured by Molecular Devices), a fluorescence value (excitation wavelength 488 nm, measurement wavelength 570 nm) of each well was measured every one second for 2 min, and the agonist activity was determined using the area of the fluorescence value as an indicator of intracellular Ca^2+ concentration. The agonist activity of the test compound was calculated assuming that the fluorescence value of the well added with only the dilution buffer was 0% and the fluorescence value of the well added with 10 nM human orexin A (Tocris) buffer was 100%.
Values of hOx2 pEC50 in Table B are presented in ranges, in which 6.0≤“+”<7.0, 7.0≤“++”<8.0, 8.0≤“+++”<9.0, and 9.0≤“++++”<10.4.

With `CN1CCOc2ccccc2-c2cccc(c2F)C[C@H]2[C@@H](NS(=O)(=O)C(F)F)C3(CC3)CN2C1=O` [Example 4, 1,1-difluoro-N-((2′S,3′S)-2′-fluoro-6′-methyl-5′-oxospiro[cyclopropane-1,4′-9-oxa-6-aza-4(2,1)-pyrrolidina-1(1,2),2(1,3)-dibenzenacyclononaphan]-3′-yl)methanesulfonamide], the EC50 was 1 to 10 nM.

Regarding `CN1CCOc2c(F)cc(F)cc2-c2cccc(c2F)C[C@H]2[C@@H](NS(=O)(=O)CF)C3(CC3)CN2C1=O` [Example 40, 1-fluoro-N-((2′S,3′S)-2′,3′,5′-trifluoro-6′-methyl-5′-oxospiro[cyclopropane-1,4′-9-oxa-6-aza-4(2,1)-pyrrolidina-1(1,2),2(1,3)-dibenzenacyclononaphan]-3′-yl)methanesulfonamide], the EC50 was 1 to 10 nM.

In the case of `CC(C)S(=O)(=O)N[C@H]1[C@@H](F)CN2C(=O)N(C)CCOc3ccccc3-c3cccc(c3F)C[C@@H]12` [Example 35, N-((4^2S,4^3R,4^4S)-2^2,4^4-difluoro-6-methyl-5-oxo-9-oxa-6-aza-4(2,1)-pyrrolidina-1(1,2),2(1,3)-dibenzenacyclononaphane-4^3-yl)propane-2-sulfonamide], the EC50 was 1 to 10 nM.

On to `O=C1CCOc2c(F)cc(F)cc2-c2cccc(c2)C[C@H]2[C@@H](NS(=O)(=O)CF)CCCN12` [Example 13, N-((4^2S,4^3S)-1^3,1^5-difluoro-5-oxo-8-oxa-4(2,1)-piperidina-1(1,2),2(1,3)-dibenzenacyclooctaphane-4^3-yl)-1-fluoromethanesulfonamide], for which the EC50 was 1 to 10 nM.

Consider `CCS(=O)(=O)N[C@@H]1[C@@H]2Cc3cccc(c3F)-c3cccc(F)c3OCCN(C)C(=O)N2CC12CC2` [Example 9, N-((2′S,3′S)-2′,3′-difluoro-6′-methyl-5′-oxospiro[cyclopropane-1,4′-9-oxa-6-aza-4(2,1)-pyrrolidina-1(1,2),2(1,3)-dibenzenacyclononaphan]-3′-yl)ethanesulfonamide], for which the EC50 was 1 to 10 nM.

For the molecule `CN1CCOc2ccccc2-c2cccc(c2F)C[C@H]2[C@@H](NS(=O)(=O)CF)CCCN2C1=O` [Example 32, 1-fluoro-N-((4^2S,4^3S)-2^2-fluoro-6-methyl-5-oxo-9-oxa-6-aza-4(2,1)-piperidina-1(1,2),2(1,3)-dibenzenacyclononaphane-4^3-yl)methanesulfonamide], the EC50 was 10 to 100 nM.

On to `CN1CCOc2c(F)cccc2-c2cccc(c2)C[C@H]2[C@@H](NS(=O)(=O)C(F)F)C(F)(F)CN2C1=O` [Example 1, 1,1-difluoro-N-((4^2S,4^3R)-1^3,4^4,4^4-trifluoro-6-methyl-5-oxo-9-oxa-6-aza-4(2,1)-pyrrolidina-1(1,2),2(1,3)-dibenzenacyclononaphane-4^3-yl)methanesulfonamide], for which the EC50 is 10 to 100 nM.

Consider `CN1CCOc2ccccc2-c2cccc(c2)C[C@H]2[C@@H](NS(=O)(=O)C(C)(C)F)C3(CC3)CN2C1=O` [Example 38, 2-fluoro-N-((2′S,3′S)-6′-methyl-5′-oxospiro[cyclopropane-1,4′-9-oxa-6-aza-4(2,1)-pyrrolidina-1(1,2),2(1,3)-dibenzenacyclononaphan]-3′-yl)propane-2-sulfonamide], for which the EC50 is 1 to 10 nM.

With `CCS(=O)(=O)N[C@H]1[C@@H](F)CN2C(=O)N(C)CCOc3ccccc3-c3cccc(c3F)C[C@@H]12` [Example 17, N-((4^2S,4^3R,4^4S)-2^2,4^4-difluoro-6-methyl-5-oxo-9-oxa-6-aza-4(2,1)-pyrrolidina-1(1,2),2(1,3)-dibenzenacyclononaphane-4^3-yl)ethanesulfonamide], the EC50 is 1 to 10 nM.

In the case of `CN1CCOc2c(F)cccc2-c2cccc(c2)C[C@H]2[C@@H](NS(=O)(=O)C(F)F)[C@@H](F)CN2C1=O` [Example 20, N-((4^2S,4^3R,4^4S)-1^3,4^4-difluoro-6-methyl-5-oxo-9-oxa-6-aza-4(2,1)-pyrrolidina-1(1,2),2(1,3)-dibenzenacyclononaphane-4^3-yl)-1,1-difluoromethanesulfonamide], the EC50 is 1 to 10 nM.

For the molecule `CN1CCOc2c(F)cccc2-c2cccc(c2F)C[C@H]2[C@@H](NS(=O)(=O)CF)[C@@H](F)CN2C1=O` [Example 12, 1-fluoro-N-((4^2S,4^3R,4^4S)-1^3,2^2,4^4-trifluoro-6-methyl-5-oxo-9-oxa-6-aza-4(2,1)-pyrrolidina-1(1,2),2(1,3)-dibenzenacyclononaphane-4^3-yl)methanesulfonamide], the EC50 was 1 to 10 nM.

For `O=C1CCOc2ccccc2-c2cccc(c2F)C[C@H]2[C@@H](NS(=O)(=O)C3(F)CC3)CCCN12` [Example 36, 1-fluoro-N-((4^2S,4^3S)-2^2-fluoro-5-oxo-8-oxa-4(2,1)-piperidina-1(1,2),2(1,3)-dibenzenacyclooctaphane-4^3-yl)cyclopropane-1-sulfonamide], the EC50 was 1 to 10 nM.

In the case of `CN1CCOc2c(F)cccc2-c2cccc(c2)C[C@H]2[C@@H](NS(=O)(=O)CF)[C@@H](F)CN2C1=O` [Example 21, N-((4^2S,4^3R,4^4S)-1^3,4^4-difluoro-6-methyl-5-oxo-9-oxa-6-aza-4(2,1)-pyrrolidina-1(1,2),2(1,3)-dibenzenacyclononaphane-4^3-yl)-1-fluoromethanesulfonamide], the EC50 was 1 to 10 nM.

As for `CCS(=O)(=O)N[C@H]1[C@@H](F)CN2C(=O)N(C)CCOc3ccccc3-c3cccc(c3)C[C@@H]12` [Example 15, N-((4^2S,4^3R,4^4S)-4^4-fluoro-6-methyl-5-oxo-9-oxa-6-aza-4(2,1)-pyrrolidina-1(1,2),2(1,3)-dibenzenacyclononaphane-4^3-yl)ethanesulfonamide], the EC50 is 1 to 10 nM.

For the molecule `O=C1CCOc2ccccc2-c2cccc(c2)C[C@H]2[C@@H](NS(=O)(=O)C3(F)CC3)[C@@H](F)CCN12` [Example 45, 1-fluoro-N-((4^2S,4^3R,4^4S)-4^4-fluoro-5-oxo-8-oxa-4 (2,1)-piperidina-1 (1,2),2 (1,3)-dibenzenacyclooctaphane-4^3-yl)cyclopropane-1-sulfonamide], the EC50 was 1 to 10 nM.

For the molecule `CN1CCOc2c(F)cc(F)cc2-c2cccc(c2F)C[C@H]2[C@@H](NS(=O)(=O)C(F)F)[C@@H](F)CN2C1=O` [Example 11, 1,1-difluoro-N-((4^2S,4^3R,4^4S)-1^3,1^5,2^2,4^4-tetrafluoro-6-methyl-5-oxo-9-oxa-6-aza-4(2,1)-pyrrolidina-1(1,2),2(1,3)-dibenzenacyclononaphane-4^3-yl)methanesulfonamide], the EC50 was 10 to 100 nM.

For the molecule `CCS(=O)(=O)N[C@@H]1[C@@H]2Cc3cccc(c3)-c3ccccc3OCCN(C)C(=O)N2CC1(F)F` [Example 23, N-((4^2S,4^3R)-4^4,4^4-difluoro-6-methyl-5-oxo-9-oxa-6-aza-4(2,1)-pyrrolidina-1(1,2),2(1,3)-dibenzenacyclononaphane-4^3-yl)ethanesulfonamide], the EC50 is 1 to 10 nM.

Turning to `C[C@@H](F)S(=O)(=O)N[C@H]1CCCN2C(=O)CCOc3ccccc3-c3cccc(c3)C[C@@H]12` [Example 28, (S)-1-fluoro-N-((4^2S,4^3S)-5-oxo-8-oxa-4(2,1)-piperidina-1(1,2),2(1,3)-dibenzenacyclooctaphane-4^3-yl)ethane-1-sulfonamide], the EC50 is 0.0398 to 1 nM.

The record behind these values is patent US20250236629A1, “MEDIUM- OR MACRO-CYCLIC BENZYL-SUBSTITUTED HETEROCYCLE DERIVATIVES AND RELATED USES” (CENTESSA PHARMACEUTICALS (UK) LIMITED, priority 2022, published 2025).
